Experimental data reported in article PMC9629815, “MK256 is a novel CDK8 inhibitor with potent antitumor activity in AML through downregulation of the STAT pathway” (Oncotarget, 2022).
Where two headings read alike, the source gives them in different places.

Experiments:
CYP3A4-TS = CYP3A4-TS (Homo sapiens, UniProt P08684); assay: Cytochrome P450 inhibition assay; format: in vitro ADME; conditions: 50 uM
MOLM-14 cells = assay: Cell viability dose-response matrix of MK256 and venetoclax; format: cell-based; conditions: Homo sapiens, Venetoclax 0 nM, 72 hrs, read-out: percentage of cell viability
Text: Our earlier experiments showing the clearly increasing expression of BCL-2 in the MOLM-14 cell line led us to ask if there was any combinational effect between MK256 and a BCL-2 inhibitor in MOLM-14 cells. To address this question, we chose venetoclax (ABT-199), an FDA-approved BCL-2 inhibitor for AML and CLL, for the combination study. We treated MOLM-14 cells with MK256 and venetoclax at a series of concentration combinations, measured cell viability, and reported the data in a dose-response matrix (Figure 8). […] We also investigated the apoptotic effect of the combination treatment in the MOLM-14 cell line (Figure 10B).
Figure 10 (A) Dose-response matrix of percentage of cell viability of 10,000 MOLM-14 cells after 72 hrs treatment of MK256 and venetoclax at various concentration combinations. (B) Annexin V staining of 10,000 MOLM-14 cells after 72 hrs treatment of MK256 and venetoclax(ABT199) at various concentration combinations. Status of cells are labeled in the graph at the upper left corner. (C) Tumor growth of MOLM-14 xenograft model. Groups of control; ABT199 (25 mg/kg); ABT199 (25 mg/kg) + MK256 (10 mg/kg); ABT199 25 mg/kg + MK256 (50 mg/kg) were shown in straight line, dotted line, 3 dashed line and 2 dashed line, respectively. ^*** P < 0.001. (D) Body weight percentage of MOLM-14 tumor model. […]

HEL = assay: Cell proliferation assay (CellTiter-Glo, 7-day); format: cell-based; conditions: Homo sapiens, 168 h
Procedure: [The procedure below names another cell line; the source lists this cell line under the same test.] (§1) AML cell lines MV-4-11, MOLM14, KG-1, and SKNO-1 were acquired from ATCC (Manassas, VA, USA) and DSMZ (Braunschweig, Germany). Cells were plated (96-well) in triplicate at 3000 cells per well for testing (n = 3) in 1% FBS media. On day 7, the CellTiter-Glo Luminescent Cell Viability Assay (Promega, Madison, WI, US) was performed to measure the response. Two independent experiments were done.

MOLM-13 = assay: Cell proliferation assay (CellTiter-Glo, 7-day); format: cell-based; conditions: Homo sapiens, MOLM-13, 168 h
Procedure: [The procedure below names another cell line; the source lists this cell line under the same test.] as §1

MOLM-14 = assay: Cell proliferation assay (CellTiter-Glo, 7-day); format: cell-based; conditions: Homo sapiens, MOLM-14, 168 h
Procedure: as §1

MV-4-11 = assay: Cell proliferation assay (CellTiter-Glo, 7-day); format: cell-based; conditions: Homo sapiens, MV4-11, 168 h
Procedure: as §1

MUTZ-8 = assay: Cell proliferation assay (CellTiter-Glo, 7-day); format: cell-based; conditions: MUTZ-8, 168 h
Procedure: [The procedure below names another cell line; the source lists this cell line under the same test.] as §1

SKNO-1 = assay: Cell proliferation assay (CellTiter-Glo, 7-day); format: cell-based; conditions: SKNO-1, 168 h
Procedure: as §1

NOMO-1 = assay: Cell proliferation assay (CellTiter-Glo, 7-day); format: cell-based; conditions: Homo sapiens, NOMO-1, 168 h
Procedure: [The procedure below names another cell line; the source lists this cell line under the same test.] as §1

MONO-MAC-6 = assay: Cell proliferation assay (CellTiter-Glo, 7-day); format: cell-based; conditions: Homo sapiens, MONO-MAC-6, 168 h
Procedure: [The procedure below names another cell line; the source lists this cell line under the same test.] as §1

KG-1 = assay: Cell proliferation assay (CellTiter-Glo, 7-day); format: cell-based; conditions: Homo sapiens, KG-1, 168 h
Procedure: as §1

hERG = hERG (Homo sapiens, UniProt Q12809); assay: hERG safety assay; conditions: 30 uM
hERG, sequence (Q12809 whole entry): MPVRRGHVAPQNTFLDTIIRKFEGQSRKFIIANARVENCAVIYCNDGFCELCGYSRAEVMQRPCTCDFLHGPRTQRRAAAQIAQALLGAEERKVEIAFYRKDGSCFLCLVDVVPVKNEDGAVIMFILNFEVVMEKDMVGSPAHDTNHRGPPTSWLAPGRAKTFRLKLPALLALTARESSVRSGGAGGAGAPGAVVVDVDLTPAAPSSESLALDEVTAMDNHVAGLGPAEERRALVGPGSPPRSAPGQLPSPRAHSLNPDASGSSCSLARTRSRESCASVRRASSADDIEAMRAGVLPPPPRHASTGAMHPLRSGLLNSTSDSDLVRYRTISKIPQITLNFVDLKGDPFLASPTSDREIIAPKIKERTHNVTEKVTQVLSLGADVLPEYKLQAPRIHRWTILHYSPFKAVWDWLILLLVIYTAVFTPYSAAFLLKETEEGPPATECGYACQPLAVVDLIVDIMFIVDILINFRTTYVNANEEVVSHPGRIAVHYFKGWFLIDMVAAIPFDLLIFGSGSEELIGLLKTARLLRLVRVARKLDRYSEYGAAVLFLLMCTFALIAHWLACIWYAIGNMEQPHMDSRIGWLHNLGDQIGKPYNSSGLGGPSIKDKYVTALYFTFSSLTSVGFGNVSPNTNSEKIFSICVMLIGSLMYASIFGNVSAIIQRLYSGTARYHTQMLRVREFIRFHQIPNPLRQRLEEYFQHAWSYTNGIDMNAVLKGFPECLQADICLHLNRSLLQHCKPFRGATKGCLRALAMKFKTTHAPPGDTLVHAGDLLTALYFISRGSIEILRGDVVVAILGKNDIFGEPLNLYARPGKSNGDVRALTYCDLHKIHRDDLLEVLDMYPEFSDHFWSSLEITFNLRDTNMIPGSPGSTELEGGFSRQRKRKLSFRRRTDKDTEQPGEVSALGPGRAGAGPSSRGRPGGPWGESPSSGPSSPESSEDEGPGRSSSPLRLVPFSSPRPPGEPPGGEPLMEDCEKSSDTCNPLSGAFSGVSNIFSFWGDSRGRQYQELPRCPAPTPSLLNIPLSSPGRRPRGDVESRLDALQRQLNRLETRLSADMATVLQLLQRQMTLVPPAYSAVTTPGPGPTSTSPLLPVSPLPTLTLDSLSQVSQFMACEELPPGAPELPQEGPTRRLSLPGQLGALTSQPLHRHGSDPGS

[1] = Histological analysis (H&E) of major organs after 21 days treatment; format: in vivo, mice; conditions: 100 mg/kg, q.d., oral
Procedure: To evaluate the behavior of MK256 in vivo we did a full pharmacokinetics (PK) analysis of MK256 in mice. […] In the MOLM-14 xenograft model, we treated mice with 10 mg/kg, 50 mg/kg and 100 mg/kg of MK256 for 6 hrs, after which tumors from each treatment group were harvested and processed for western blotting analysis. […] We also performed a histological analysis of the major organs (bone, brain, heart, intestine, kidney, liver and lung) of mice after they were treated with 100 mg/kg of MK256 for 21 days (q.d, oral) (Figure 8). […] In summary, MK256 offered a desirable solubility, permeability, hepatocyte stability, toxicology, and pharmacokinetics/pharmacodynamics (PK/PD) profile.
Figure 8 Evaluation of the toxicity of MK256 in vivo. Histological data (H&E staining) obtained in the major organs (bone, brain, heart, intestine, kidney, liver, and lung) of the mice treated with MK256 (100 mg/kg, q.d., oral) for 21 days.

[2] = 7-day, bound given in text, read-out: IC50

CYP3A4-TS, sequence (P08684 whole entry): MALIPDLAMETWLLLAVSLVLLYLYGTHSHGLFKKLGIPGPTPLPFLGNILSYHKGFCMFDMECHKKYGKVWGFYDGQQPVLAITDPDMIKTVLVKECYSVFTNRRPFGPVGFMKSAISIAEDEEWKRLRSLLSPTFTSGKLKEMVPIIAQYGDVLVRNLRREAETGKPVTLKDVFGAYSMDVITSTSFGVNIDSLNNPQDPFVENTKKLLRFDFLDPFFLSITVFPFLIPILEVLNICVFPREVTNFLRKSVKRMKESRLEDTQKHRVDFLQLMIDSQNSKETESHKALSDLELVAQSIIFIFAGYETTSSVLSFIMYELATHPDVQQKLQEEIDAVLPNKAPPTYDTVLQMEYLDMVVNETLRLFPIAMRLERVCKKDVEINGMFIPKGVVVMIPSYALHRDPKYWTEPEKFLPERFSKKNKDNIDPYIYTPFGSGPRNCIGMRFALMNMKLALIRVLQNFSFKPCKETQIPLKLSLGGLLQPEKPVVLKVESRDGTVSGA

With `Nc1nccc2c(Br)cc3cc(C(=O)O)ccc3c12` [MK256] the “cytochrome P450 inhibition” value (CYP3A4-TS) was “no inhibition”, the viability at 0.0015 µM (MOLM-14 cells; MK256 1.5 nM) was 110% and the viability at 0.0046 µM (MOLM-14 cells; MK256 4.6 nM) was 101%. The viability at 0.0137 µM (MOLM-14 cells; MK256 13.7 nM) was 103%, the viability at 0.0412 µM (MOLM-14 cells; MK256 41.2 nM) was 103% and the viability at 0.1235 µM (MOLM-14 cells; MK256 123.5 nM) was 100%. For the same compound, the viability at 0.3704 µM (MOLM-14 cells; MK256 370.4 nM) was 90%, the viability at 1.1 µM (MOLM-14 cells; MK256 1100 nM) was 32% and the viability at 10 µM (MOLM-14 cells; MK256 10000 nM) was 0%. For the same compound, the viability at 30 µM (MOLM-14 cells; MK256 30000 nM) was 0%, the IC50 (HEL; [2]) was greater than 2000 nM and the IC50 (HEL; read-out: IC50 nM (7-day)) was 2700 nM. It also gave an IC50 (MOLM-13) of 1050 nM, an IC50 (MOLM-14) of 24 nM and an IC50 (MV-4-11) of 23 nM. For the same compound, the IC50 (MUTZ-8; [2]) was greater than 2000 nM, the IC50 (MUTZ-8; read-out: IC50 nM (7-day)) was 5560 nM and the IC50 (SKNO-1) was 73 nM. It also gave an IC50 (NOMO-1) of 646 nM, an IC50 (MONO-MAC-6) of 1260 nM and an IC50 (KG-1) of 80 nM. The “inhibition of hERG” value (hERG) was “no inhibition” and the “histology of major organs (bone, brain, heart, intestine, kidney, liver and lung)” value [1] was “did not cause visible pathological changes”.
